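Cells were grown in 96-well plates and exposed to each compound for 48 hours at five concentrations; endpoints were interpolated linearly between bracketing concentrations, or set to the highest concentration if not reached. GI50 is the concentration that inhibits growth by half.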 The source made the active and inactive calls. No stated cut-off is given here; in the data, active = GI50 up to about 1.1 µM and inactive = higher.
What was measured:
Experiment in all cases: DTP human tumour cell line panel, 48 h
DLD-1 = system: DLD-1
DMS-114 = system: DMS-114
HOP-18 = system: HOP-18
KM-20L2 = system: KM-20L2
LXFL 529 = system: LXFL 529
M19-MEL = system: M19-MEL
SNB-78 = system: SNB-78
XF498 = system: XF498
RXF 631 = system: RXF 631

Compound | GI50 (DLD-1) | GI50 (DMS-114) | GI50 (HOP-18) | GI50 (KM-20L2) | GI50 (LXFL 529) | GI50 (M19-MEL) | GI50 (SNB-78) | GI50 (XF498) | GI50 (RXF 631)
CCO/C([O-])=C(\C(=O)c1ccc([N+](=O)[O-])cc1)[n+]1c(C)n(C)c2ccccc21 | > 100 µM (inactive) | > 100 µM (inactive) | > 100 µM (inactive) | > 100 µM (inactive) | > 100 µM (inactive) | > 100 µM (inactive) | > 100 µM (inactive) |  | 
O=C(c1ccccc1)C1(Br)S(=O)(=O)OCCOS1(=O)=O | > 100 µM (inactive) | > 100 µM (inactive) |  | > 100 µM (inactive) | > 100 µM (inactive) | > 100 µM (inactive) | > 100 µM (inactive) | > 100 µM (inactive) | 
Cc1n[nH]c(=S)n(C)c1=S | > 100 µM (inactive) | > 100 µM (inactive) | 27.2 µM (inactive) | > 100 µM (inactive) | > 100 µM (inactive) | > 100 µM (inactive) | > 100 µM (inactive) | > 100 µM (inactive) | > 100 µM (inactive)
N#Cc1c(C[n+]2ccccc2)c2ccccc2oc1=O | > 100 µM (inactive) | > 100 µM (inactive) |  | > 100 µM (inactive) | > 100 µM (inactive) | > 100 µM (inactive) | > 100 µM (inactive) | > 100 µM (inactive) | 
Nc1ccc(C(=O)N/C(=C\c2ccc3c(c2)OCO3)c2nc3ccccc3s2)cc1 | 13 µM (inactive) |  |  | 14.8 µM (inactive) | 10.6 µM (inactive) | 14.9 µM (inactive) | 16.7 µM (inactive) | 12.9 µM (inactive) | 5.79 µM (inactive)
Oc1ccc(Br)cc1/C=N/c1ccc(Oc2ccc(/N=C/c3cc(Br)ccc3O)cc2)cc1 | > 19.6 µM (inactive) | > 19.6 µM (inactive) | > 19.6 µM (inactive) | > 19.6 µM (inactive) | > 19.6 µM (inactive) | > 19.6 µM (inactive) |  |  | 
CCOC(=O)C(=O)Nc1c(C)cccc1C | > 100 µM (inactive) | > 100 µM (inactive) | > 100 µM (inactive) | > 100 µM (inactive) | > 100 µM (inactive) | > 100 µM (inactive) | > 100 µM (inactive) | > 100 µM (inactive) | 
C[C@@]1(O)CC[C@]2(C)C3CCCC3[C@H]12 (stereo partly specified) | > 100 µM (inactive) | > 100 µM (inactive) | > 100 µM (inactive) | > 100 µM (inactive) | > 100 µM (inactive) | > 100 µM (inactive) | > 100 µM (inactive) |  | > 100 µM (inactive)
COc1cc([C@@H]2c3cc4c(cc3[C@@H](NC(=O)c3ccc([N+](=O)[O-])cc3)C3COC(=O)[C@@H]32)OCO4)cc(OC)c1O (stereo partly specified) | 1.38 µM (inactive) | 0.31 µM (active) | 67.8 µM (inactive) | 0.615 µM (active) | 3.13 µM (inactive) | 1.25 µM (inactive) | 1.92 µM (inactive) | 0.166 µM (active) | 1.02 µM (active)
COc1cc(/C=C/c2ccc(OC)c(O)c2)cc(OC)c1 | 5.52 µM (inactive) | 3.33 µM (inactive) |  | 20.4 µM (inactive) | 6.03 µM (inactive) | 6.41 µM (inactive) | 5.64 µM (inactive) | 3.37 µM (inactive) | 
FC(F)(F)c1ccc(C2SCc3nc4ccccc4n32)cc1 (stereo unspecified) | 7.24 µM (inactive) | 7.21 µM (inactive) | > 100 µM (inactive) |  | 23.4 µM (inactive) | 66.8 µM (inactive) | > 100 µM (inactive) |  | 2.96 µM (inactive)
CCCCCCCCCC(=O)OCC1OC(n2cc(F)c(=O)[nH]c2=O)C(NC(=O)OCc2ccccc2)C(OC(=O)CCCCCCCCC)C1O (stereo unspecified) |  | 18.8 µM (inactive) |  | > 10 µM (inactive) | 24.7 µM (inactive) | 36.8 µM (inactive) |  |  | 
CC(C)(CN1CCCCC1)C(=O)/C=C/c1ccc(/C=C/C(=O)C(C)(C)CN2CCCCC2)cc1 | 0.142 µM (active) | 0.701 µM (active) | 1.28 µM (inactive) | 0.644 µM (active) | 0.262 µM (active) | 0.982 µM (active) | 2.46 µM (inactive) | 0.344 µM (active) | 
CN(C)C(=S)/N=c1\ssc(=S)n1Cc1ccncc1 | 16 µM (inactive) | 2.39 µM (inactive) | 17.7 µM (inactive) | 32.9 µM (inactive) | 16.3 µM (inactive) | 10.7 µM (inactive) | > 100 µM (inactive) | 5.66 µM (inactive) | 3.8 µM (inactive)
Cc1cc2nc3c(C(OC4OC(CO)C(O)C(O)C4O)C(O)CO)nn(-c4ccc(F)cc4)c3nc2cc1C (stereo unspecified) | > 100 µM (inactive) | > 100 µM (inactive) |  | > 100 µM (inactive) | > 100 µM (inactive) | > 100 µM (inactive) | > 100 µM (inactive) | > 100 µM (inactive) | > 100 µM (inactive)
O=C(NCCNCCO)c1cccc2ccc(-c3ccccc3)nc12 | 3.41 µM (inactive) | 7.52 µM (inactive) | 19 µM (inactive) |  |  | 4.89 µM (inactive) | 9.25 µM (inactive) |  | 1.83 µM (inactive)
CCOc1ccc2c(c1)[n+]([O-])c(-c1ccc(Cl)cc1)c(N)[n+]2[O-] | > 100 µM (inactive) | 68.7 µM (inactive) | > 100 µM (inactive) | > 100 µM (inactive) | 87.7 µM (inactive) |  | > 100 µM (inactive) |  | 
NC1=NN(c2ccccc2)C(=O)C1/C(=N\NC(=O)c1cc2ccccc2cc1O)C(=O)Nc1ccc(Cl)cc1 (stereo unspecified) | 21.6 µM (inactive) | 17.9 µM (inactive) | 25.4 µM (inactive) | 32.7 µM (inactive) | 22.2 µM (inactive) | 26.4 µM (inactive) | 34.8 µM (inactive) | 34.6 µM (inactive) | 49.1 µM (inactive)
O=[N+]([O-])c1ccc2nc(/C(=N/Nc3ccccc3)C(O)c3ccc(C(O)/C(=N\Nc4ccccc4)c4nc5ccc([N+](=O)[O-])cc5nc4O)cc3)cnc2c1 (stereo unspecified) |  | 11.2 µM (inactive) |  | 11.5 µM (inactive) |  | 58.9 µM (inactive) |  |  | 
CCCCc1c2c([n+]([O-])c3c1CCCC3)CCCC2 |  | > 100 µM (inactive) |  | > 100 µM (inactive) | > 100 µM (inactive) | 66.8 µM (inactive) |  | > 100 µM (inactive) | 
CN(C)c1n/c(=N/Cc2ccco2)ss1 | 14.2 µM (inactive) | 3.33 µM (inactive) | > 100 µM (inactive) | > 100 µM (inactive) | 38.9 µM (inactive) | 5.05 µM (inactive) | > 58.9 µM (inactive) | > 100 µM (inactive) | 
CN(C)CCC(/C=C/c1ccccc1)=N\Nc1ccc(Cl)cc1Cl | 14.1 µM (inactive) | 14.8 µM (inactive) | 10.2 µM (inactive) |  | 10.9 µM (inactive) | 15.6 µM (inactive) | 13.5 µM (inactive) |  | 
Cc1cc([N+](=O)[O-])ccc1Sc1c2ccccc2nc2cc(Cl)ccc12 | 36.3 µM (inactive) | 25.4 µM (inactive) | 34.8 µM (inactive) | 20.4 µM (inactive) | 31 µM (inactive) | 43 µM (inactive) | 41.3 µM (inactive) | 23 µM (inactive) | 49.1 µM (inactive)
N#Cc1c2ccccc2c(Cc2ccc3c(c2)OCCOCCOCCOCCOCCO3)c2ccccc12 | 10.3 µM (inactive) | 10.4 µM (inactive) | 10.1 µM (inactive) | 10 µM (inactive) | 5.46 µM (inactive) |  | 9.14 µM (inactive) | 10.5 µM (inactive) | 
CC1=C(c2nc3ccccc3s2)C(=O)OC1(C)C | > 100 µM (inactive) | > 100 µM (inactive) |  | > 100 µM (inactive) | > 100 µM (inactive) | > 100 µM (inactive) | > 100 µM (inactive) | > 100 µM (inactive) | > 100 µM (inactive)
CC1(C)C(=O)C(=Cc2ccco2)C1=O | > 100 µM (inactive) | > 100 µM (inactive) | > 100 µM (inactive) |  | > 100 µM (inactive) | > 100 µM (inactive) | > 100 µM (inactive) | > 100 µM (inactive) | > 100 µM (inactive)

— ChEMBL document CHEMBL1201862, “PubChem BioAssay data set” (2004)
